Reference: patent publication US7223759B2, “Antibacterial 3,5-diaminopiperidine-substituted aromatic and heteroaromatic compounds” (Anadys Pharmaceuticals, Inc., priority 2003, dated 2007)
Like-named read-outs stand apart in the source and are kept apart here.

Tested on: Escherichia coli (ATCC25922) or Staphylococcus aureus (ATCC25923)
Experiment: Antibacterial MIC, microdilution method in Mueller-Hinton medium
Type: cell-based
Details: Escherichia coli, 18 h, read-out: Potency (MIC)
Summary of the method: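 Read after 18 h incubation at 35° C, MIC is the lowest compound level that blocked growth. Compounds were tested in duplicate over 64–0.5 μg/ml two-fold dilutions using Mueller-Hinton microdilution per NCCLS standard.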

[1] = MIC in E. coli or S. aureus, two-fold serial dilutions 64 to 0.5 μg/ml in duplicate, 18 hours of incubation at 35° C.

Row | Structure (SMILES) | MIC [1] [µg/mL] | MIC [µg/mL]
1 | Cc1cc(=O)oc2cc(Nc3nc(N4C[C@H](N)C[C@H](N)C4)nc(N4C[C@H](CN)C[C@H](CN)C4)n3)ccc12 [7-[4-((3S,5R)-3,5-Bis-(aminomethyl)-piperidin-1-yl)-6-((3R,5S)-3,5-diamino-piperidin-1-yl)-[1,3,5]triazin-2-ylamino]-4-methyl-chromen-2-one] |  | > 64
2 | Cc1cc(=O)oc2cc(Nc3nc(N4C[C@H](N)C[C@H](N)C4)nc(N4C[C@@H](N)C[C@@H](O)C4)n3)ccc12 [7-[4-((3S,5R)-3-Amino-5-hydroxy-piperidin-1-yl)-6-((3R,5S)-3,5-diamino-piperidin-1-yl)-[1,3,5]triazin-2-ylamino]-4-methyl-chromen-2-one] | > 64 | 
3 | Cc1cc(=O)oc2cc(Nc3nc(N(CCN)CCN)nc(N4C[C@H](N)C[C@H](N)C4)n3)ccc12 [7-[4-[Bis-(2-amino-ethyl)-amino]-6-((3R,5S)-3,5-diamino-piperidin-1-yl)-[1,3,5]triazin-2-ylamino]-4-methyl-chromen-2-one] |  | > 64
4 | N[C@@H]1C[C@H](N)CN(c2nc(N3CCC(n4c(=O)[nH]c5ccccc54)CC3)nc(N3C[C@H](N)C[C@H](N)C3)n2)C1 [8-(4,6-Bis-((3R,5S)-3,5-0diamino-piperidin-1-yl)-[1,3,5]triazin-2-yl)-1-phenyl-1,3,8-triaza-spiro[4.5]decan-4-one] | > 64 | 
5 | N[C@@H]1C[C@H](N)CN(c2cc(Nc3ccc([N+](=O)[O-])cc3)cc(N3C[C@H](N)C[C@H](N)C3)c2)C1 [(3,5-Bis-((3R,5S)-3,5-diamino-piperidin-1-yl)-phenyl)-(4-nitro-phenyl)-amine] |  | > 64
6 | N[C@@H]1C[C@H](N)CN(c2cc(N3C[C@H](N)C[C@H](N)C3)cc(N(c3ccc([N+](=O)[O-])cc3)c3ccc([N+](=O)[O-])cc3)c2)C1 [(3,5-Bis-((3R,5S)-3,5-diamino-piperidin-1-yl)-phenyl)-bis-(4-nitro-phenyl)-amine] | < 64 | 
7 | Cl.NC(=O)[C@H](CO)Nc1nc(N2C[C@H](N)C[C@H](N)C2)nc(N2C[C@H](N)C[C@H](N)C2)n1 [(S)-2-[4-((3R,5S)-3,5-Diamino-piperidin-1-yl)-6-((3S,5R)-3,5-diamino-piperidin-1-yl)-[1,3,5]triazin-2-ylamino]-3-hydroxy-propionamide] | > 64 | 
8 | CN(c1nc(N2C[C@H](N)C[C@H](N)C2)nc(N2C[C@H](N)C[C@H](N)C2)n1)C1CCN(Cc2ccccc2)C1 (stereo partly drawn) [N-(1-Benzyl-pyrrolidin-3-yl)-N-methyl-4,6-Bis-((3R,5S)-3,5-diamino-piperidin-1-yl)-[1,3,5]triazine-2-amine] |  | < 64
9 | Cl.N[C@@H]1C[C@H](N)CN(c2nc(Nc3ccc4[nH]cnc4c3)nc(N3C[C@H](N)C[C@H](N)C3)n2)C1 [N-(1H-benzoimidazol-5-yl)-4,6-Bis-((3R,5S)-3,5-diamino-piperidin-1-yl)-[1,3,5]triazine-2-amine] | < 64 | 
10 | N[C@@H]1C[C@H](N)CN(c2nc(NCc3ccc(Cl)cc3Cl)nc(N3C[C@H](N)C[C@H](N)C3)n2)C1 [N-(2,4-dichloro-benzyl)-4,6-Bis-((3R,5S)-3,5-diamino-piperidin-1-yl)-[1,3,5]triazin-2-amine] |  | > 64
11 | Cl.N[C@@H]1C[C@H](N)CN(c2nc(Nc3c[nH]c(=O)[nH]c3=O)nc(N3C[C@H](N)C[C@H](N)C3)n2)C1 [N-(2,4-dioxo-1,2,3,4-tetrahydro-pyrimidin-5-yl)-4,6-Bis-((3R,5S)-3,5-diamino-piperidin-1-yl)-[1,3,5]triazine-2-amine] | < 64 | 
12 | COc1ccc(OC)c(Nc2nc(N3C[C@H](N)C[C@H](N)C3)nc(N3C[C@H](N)C[C@H](N)C3)n2)c1 [N-(2,5-dimethoxy-phenyl)-4,6-Bis-((3R,5S)-3,5-diamino-piperidin-1-yl)-[1,3,5]triazine-2-amine] | > 64 | 
13 | COc1cccc(OC)c1CNc1nc(N2C[C@H](N)C[C@H](N)C2)nc(N2C[C@H](N)C[C@H](N)C2)n1 [N-(2,6-dimethoxy-benzyl)-4,6-Bis-((3R,5S)-3,5-diamino-piperidin-1-yl)-[1,3,5]triazine-2-amine] |  | > 64
14 | N[C@@H]1C[C@H](N)CN(c2nc(Nc3ccc(C(=O)CC(=O)Nc4ccccc4Cl)cc3)nc(N3C[C@@H](N)[C@@H](N)C3)n2)C1 [N-(2-Chloro-phenyl)-3-{4-[4-((3R,5S)-3,5-diamino-piperidin-1-yl)-6-((3R,4S)-3,4-diamino-pyrrolidin-1-yl)-[1,3,5]triazin-2-ylamino]-phenyl}-3-oxo-propionamide] |  | < 64
15 | N[C@@H]1C[C@H](N)CN(c2nc(Nc3ccc(C(=O)CC(=O)Nc4ccccc4Cl)cc3)nc(N3C[C@H](O)C[C@H](O)C3)n2)C1 [N-(2-Chloro-phenyl)-3-{4-[4-((3R,5S)-3,5-diamino-piperidin-1-yl)-6-((3R,5S)-3,5-dihydroxy-piperidin-1-yl)-[1,3,5]triazin-2-ylamino]-phenyl}-3-oxo-propionamide] |  | < 64

Second part, led by results:

Row | MIC [1] [µg/mL] | Structure (SMILES) | MIC [µg/mL]
16 | > 64 | COC(=O)c1ccc(Nc2nc(N3CCCCC3)nc(N3CCCCC3)n2)c(O)c1 [44-[4,6-Bis-((3R,5S)-3,5-diamino-piperidin-1-yl)-[1,3,5]triazin-2-ylamino]-3-hydroxy-benzoic acidmethyl ester] | 
17 | < 64 | Cl.NC1CCCN(c2nc(Nc3ccc(Cl)c(Cl)c3)nc(N3CCCCC3)n2)C1 [(3R,5S)-1-[4-(3-Amino-piperidin-1-yl)-6-(3,4-dichloro-phenylammino)-[1,3,5]triazin-22-yl]-piperidine-3,5-diamine] | 
18 | < 64 | Cl.NC1CCN(c2nc(Nc3ccc(Cl)c(Cl)c3)nc(N3C[C@H](N)C[C@H](N)C3)n2)CC1 [(3R,5S)-1-[4-(4-Amino-piperidin-1-yl)-6-(3,4-dichloro-phenylamino)-[1,3,5]triazin-2-yl]-piperidine-3,5-diamine] | 
19 | < 64 | CC12CC[C@](C(=O)Nc3ccc(Nc4nc(N5C[C@H](N)C[C@H](N)C5)nc(N5C[C@H](N)C[C@H](N)C5)n4)cc3O)(OC1=O)C2(C)C [(S)-4,7,7-Trimethyl-3-oxo-2-oxa-bicyclo[2.2.1]heptane-1-carboxylic acid {4-[4,6-bis-((3R,5S)-3,5-diamino-piperidin-1-yl)-[1,3,5]triazin-2-ylamino]-2-hydroxy-phenyl}-amide] | 
20 | > 64 | COc1ccc(NC(=O)c2ccc(Cl)cc2O)c(Nc2nc(N3CCCCC3)nc(N3CCCCC3)n2)c1.Cl [BN-[2-(4-chloro-2-hydroxy-benzoylamino)-5-methoxy-phenyl]-4,6-Bis-((3R,5S)-3,5-diamino-piperidin-1-yl)-[1,3,5]triazine-2-amine] | 
21 | > 64 | CN(Cc1cccc2ccccc12)c1nc(N2CCCCC2)nc(N2CCCCC2)n1.Cl [N,N-Methyl-naphthalen-1-ylmethyl-4,6-Bis-((3R,5S)-3,5-diamino-piperidin-1-yl)-[1,3,5]triazine-2-amine] | 
22 | < 64 | Cl.O=C(CC(=O)c1ccc(Nc2nc(N3CCCCC3)nc(N3CCCCC3)n2)cc1)Nc1ccccc1Cl [N-(2-Chloro-phenyl)-3-{4-[4-(3S,5R)-3,5-diamino-piperidin-1-yl)-6-((R)-3-hydroxy-piperidin-1-yl)-[1,3,5]triazin-2-ylamino]-phenyl}-3-oxo-propionamide] | 
